Consider 18 compounds from US9809574B2, “Isoindoline or isoquinoline compounds, a process for their preparation and pharmaceutical compositions containing them” (LES LABORATOIRES SERVIER, priority 2013, dated 2017).

In one experiment the target is Bcl-2 protein (histag-Bcl-2, UniProtKB P10415) (Homo sapiens (Human), UniProt P10415). Kind of experiment: Inhibition of Bcl-2 by the fluorescence polarisation technique. The class given is binding. Conditions: fluorescence polarisation test; incubation for 2 hours; read-out: IC50 (nM) Bcl-2 FP. The text has this:
For partial inhibitors, the percentage fluorescence polarisation inhibition for a given concentration of the test compound is indicated.

Experiment [1] deals with RS4; 11 leukaemia cell line. Put plainly: In vitro cytotoxicity, Microculture Tetrazolium Assay (MTT). It counts as cell-based. Conditions: Homo sapiens, 11 cells exposed for 48 hours. As for the experimental part:
The cytotoxicity studies were carried out on the RS4; 11 leukaemia cell line and on H146 small Cell Lung Carcinoma cell line. The cells are distributed onto microplates and exposed to the test compounds for 48 hours. The cell viability is then quantified by a colorimetric assay, the Microculture Tetrazolium Assay (Cancer Res., 1987, 47, 939-942).

Chain of Bcl-2 protein (P10415 whole entry): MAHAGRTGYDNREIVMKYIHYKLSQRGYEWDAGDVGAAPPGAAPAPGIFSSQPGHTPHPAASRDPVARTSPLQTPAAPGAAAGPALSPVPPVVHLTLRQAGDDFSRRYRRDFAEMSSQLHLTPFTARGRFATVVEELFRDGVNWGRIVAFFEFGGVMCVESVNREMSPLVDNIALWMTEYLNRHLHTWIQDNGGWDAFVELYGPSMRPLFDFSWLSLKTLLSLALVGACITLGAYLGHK

With `CCCCN(CCCC)C(=O)c1cc(-c2cc3c(cc2C(=O)N2Cc4ccccc4C[C@H]2C)CN(C(=O)Cc2ccccc2)CC3)n(C)c1C` [Example 164, N,N-Dibutyl-1,2-dimethyl-5-{7-[(3R)-3-methyl-1,2,3,4-tetrahydroisoquinoline-2-carbonyl]-2-(2-phenylacetyl)-1,2,3,4-tetrahydroisoquinolin-6-yl}-1H-pyrrole-3-carboxamide], the IC50 at Bcl-2 protein is 14 nM; in experiment [1] it was > 150 nM.

Turning to `CCCCN(CCCC)C(=O)c1cc(-c2cc3c(cc2C(=O)N2Cc4ccccc4C[C@H]2CN2CCOCC2)CN(C(=O)Cc2ccccc2)CC3)n(C)c1C` [Example 165, N,N-Dibutyl-1,2-dimethyl-5-{7-[(3S)-3-(morpholin-4-ylmethyl)-1,2,3,4-tetrahydroisoquinoline-2-carbonyl]-2-(2-phenylacetyl)-1,2,3,4-tetrahydroisoquinolin-6-yl}-1H-pyrrole-3-carboxamide], the IC50 at Bcl-2 protein is 18 nM; in experiment [1], > 150 nM.

For the compound `CN(C(=O)c1cc(-c2cc3c(cc2C(=O)N2Cc4ccccc4C[C@H]2CN2CCOCC2)CN(C(=O)COc2ccccc2)C3)n2ccccc12)c1ccc(O)cc1` [Example 166, N-(4-Hydroxyphenyl)-N-methyl-3-{6-[(3S)-3-(morpholin-4-ylmethyl)-1,2,3,4-tetrahydroisoquinoline-2-carbonyl]-2-(2-phenoxyacetyl)-2,3-dihydro-1H-isoindol-5-yl}indolizine-1-carboxamide], the IC50 on Bcl-2 protein came out at 6.4 nM; in experiment [1], 58 nM.

In the case of `C[C@@H]1Cc2ccccc2CN1C(=O)c1cc2c(cc1-c1cc(C(=O)N(C)c3ccc(O)cc3)c3ccccn13)CN(C(=O)COc1ccccc1)C2` [Example 167, N-(4-Hydroxyphenyl)-N-methyl-3-{6-[(3R)-3-methyl-1,2,3,4-tetrahydroisoquinoline-2-carbonyl]-2-(2-phenoxyacetyl)-2,3-dihydro-1H-isoindol-5-yl}indolizine-1-carboxamide], the IC50 on Bcl-2 protein came out at 6.5 nM; in experiment [1], 20 nM.

As to `Cc1ccc(OC(=O)N2Cc3cc(C(=O)N4Cc5ccccc5C[C@H]4C)c(-c4cc(C(=O)N(C)c5ccc(O)cc5)c5n4CCCC5)cc3C2)cc1` [Example 168, 4-Methylphenyl 5-{1-[(4-hydroxyphenyl)(methyl)carbamoyl]-5,6,7,8-tetrahydroindolizin-3-yl}-6-[(3R)-3-methyl-1,2,3,4-tetrahydroisoquinoline-2-carbonyl]-2,3-dihydro-1H-isoindole-2-carboxylate], the IC50 on Bcl-2 protein stood at 5.7 nM; in experiment [1], 6.6 nM.

As for `C[C@@H]1Cc2ccccc2CN1C(=O)c1cc2c(cc1-c1cc(C(=O)N(C)c3ccc(O)cc3)c3n1CCCC3)CCN(C(=O)Cc1cccc(N3CCN(C)CC3)c1)C2` [Example 169, N-(4-Hydroxyphenyl)-N-methyl-3-{7-[(3R)-3-methyl-1,2,3,4-tetrahydroisoquinoline-2-carbonyl]-2-{2-[3-(4-methylpiperazin-1-yl)phenyl]acetyl}-1,2,3,4-tetrahydroisoquinolin-6-yl}-5,6,7,8-tetrahydroindolizine-1-carboxamide], the IC50 at Bcl-2 protein came to 3.3 nM; in experiment [1], 3 nM.

Consider `CNC(=O)N1Cc2cc(C(=O)N3Cc4ccccc4C[C@H]3C)c(-c3cc(C(=O)N(C)c4ccc(O)cc4)c(C)n3C)cc2C1` [Example 170, 5-{4-[(4-Hydroxyphenyl)(methyl)carbamoyl]-1,5-dimethyl-1H-pyrrol-2-yl}-N-methyl-6-[(3R)-3-methyl-1,2,3,4-tetrahydroisoquinoline-2-carbonyl]-2,3-dihydro-1H-isoindole-2-carboxamide], for which the figures for the IC50 (at Bcl-2 protein; in experiment [1]) were 12 nM and 491 nM, respectively.

As for `C[C@@H]1Cc2ccccc2CN1C(=O)c1cc2c(cc1-c1cc(C(=O)N(C)c3ccc(O)cc3)c3n1CCCC3)CN(C(=O)CSc1ccccc1)C2` [Example 171, N-(4-Hydroxyphenyl)-N-methyl-3-{6-[(3R)-3-methyl-1,2,3,4-tetrahydroisoquinoline-2-carbonyl]-2-[2-(phenylsulfanyl)acetyl]-2,3-dihydro-1H-isoindol-5-yl}-5,6,7,8-tetrahydroindolizine-1-carboxamide], the IC50 at Bcl-2 protein came out at 5.1 nM; in experiment [1], 63 nM.

Regarding `Cc1c(C(=O)N(C)c2ccc(O)cc2)cc(-c2cc3c(cc2C(=O)N2Cc4ccccc4C[C@H]2C)CN(C(=O)Cc2ccc4c(c2)OCO4)C3)n1C` [Example 172, 5-{2-[2-(2H-1,3-Benzodioxol-5-yl)acetyl]-6-[(3R)-3-methyl-1,2,3,4-tetrahydroisoquinoline-2-carbonyl]-2,3-dihydro-1H-isoindol-5-yl}-N-(4-hydroxyphenyl)-N,1,2-trimethyl-1H-pyrrole-3-carboxamide], the IC50 is 3.4 nM at Bcl-2 protein and 28 nM in experiment [1].

`Cc1c(C(=O)N(C)c2ccc(O)cc2)cc(-c2cc3c(cc2C(=O)N2Cc4ccccc4C[C@H]2C)CN(C(=O)[C@@H](N)c2ccccc2)C3)n1C` [Example 173, 5-(2-[(2S)-2-Amino-2-phenylacetyl]-6-{[(3R)-3-methyl-3,4-dihydroisoquinolin-2(1H)-yl]carbonyl}-2,3-dihydro-1H-isoindol-5-yl)-N-(4-hydroxyphenyl)-N,1,2-trimethyl-1H-pyrrole-3-carboxamide]: the IC50 was 55 nM on Bcl-2 protein and > 600 nM in experiment [1].

As for `Cc1c(C(=O)N(C)c2ccc(O)cc2)cc(-c2cc3c(cc2C(=O)N2Cc4ccccc4C[C@H]2C)CN(C(=O)[C@H](N)c2ccccc2)C3)n1C` [Example 174, 5-(2-[(2R)-2-Amino-2-phenylacetyl]-6-{[(3R)-3-methyl-3,4-dihydroisoquinolin-2(1H)-yl]carbonyl}-2,3-dihydro-1H-isoindol-5-yl)-N-(4-hydroxyphenyl)-N,1,2-trimethyl-1H-pyrrole-3-carboxamide], the IC50 at Bcl-2 protein amounted to 5.9 nM; in experiment [1], 407 nM.

For `Cc1c(C(=O)N(C)c2ccc(O)cc2)cc(-c2cc3c(cc2C(=O)N2Cc4ccccc4C[C@H]2C)CN(C(=O)[C@H](O)c2ccccc2)C3)n1C` [Example 175, N-(4-Hydroxyphenyl)-5-(2-[(2R)-2-hydroxy-2-phenylacetyl]-6-{[(3R)-3-methyl-3,4-dihydroisoquinolin-2(1H)-yl]carbonyl}-2,3-dihydro-1H-isoindol-5-yl)-N,1,2-trimethyl-1H-pyrrole-3-carboxamide], the IC50 was 4.2 nM at Bcl-2 protein and 90 nM in experiment [1].

In the case of `CCN(C(=O)c1cc(-c2cc3c(cc2C(=O)N2Cc4ccccc4C[C@H]2CN2CCOCC2)CN(C(=O)Oc2ccccc2)CC3)n(C)c1C)c1ccc(O)cc1` [Example 185, Phenyl 6-{4-[ethyl(4-hydroxyphenyl)carbamoyl]-1,5-dimethyl-1H-pyrrol-2-yl}-7-[(3S)-3-(morpholin-4-ylmethyl)-1,2,3,4-tetrahydroisoquinoline-2-carbonyl]-1,2,3,4-tetrahydroisoquinoline-2-carboxylate], the IC50 on Bcl-2 protein is 3.7 nM; in experiment [1] it was 4.5 nM.

As to `CCCN(C(=O)c1cc(-c2cc3c(cc2C(=O)N2Cc4ccccc4C[C@H]2CN2CCOCC2)CN(C(=O)Oc2ccccc2)CC3)n(C)c1C)c1ccc(O)cc1` [Example 186, Phenyl 6-{4-[(4-hydroxyphenyl)(propyl)carbamoyl]-1,5-dimethyl-1H-pyrrol-2-yl}-7-[(3S)-3-(morpholin-4-ylmethyl)-1,2,3,4-tetrahydroisoquinoline-2-carbonyl]-1,2,3,4-tetrahydroisoquinoline-2-carboxylate], the IC50 amounted to 2.5 nM at Bcl-2 protein and 4.5 nM in experiment [1].

On to `CCCCN(C(=O)c1cc(-c2cc3c(cc2C(=O)N2Cc4ccccc4C[C@H]2CN2CCOCC2)CN(C(=O)Oc2ccccc2)CC3)n(C)c1C)c1ccc(O)cc1` [Example 187, Phenyl 6-{4-[butyl(4-hydroxyphenyl)carbamoyl]-1,5-dimethyl-1H-pyrrol-2-yl}-7-[(3S)-3-(morpholin-4-ylmethyl)-1,2,3,4-tetrahydroisoquinoline-2-carbonyl]-1,2,3,4-tetrahydroisoquinoline-2-carboxylate], for which the IC50 at Bcl-2 protein is 3 nM; in experiment [1], 4.6 nM.

Turning to `CCCCN(CCCC)C(=O)c1cc(-c2cc3c(cc2C(=O)N2Cc4ccccc4C[C@H]2CN2CCOCC2)CN(C(=O)Oc2ccccc2)CC3)n(C)c1C` [Example 197, Phenyl 6-[4-(dibutylcarbamoyl)-1,5-dimethyl-1H-pyrrol-2-yl]-7-[(3S)-3-(morpholin-4-ylmethyl)-1,2,3,4-tetrahydroisoquinoline-2-carbonyl]-1,2,3,4-tetrahydroisoquinoline-2-carboxylate], the 50% inhibitory concentration (IC50) is 26 nM at Bcl-2 protein and > 150 nM in experiment [1].

On to `Cc1c(C(=O)N(C)c2ccc(O)cc2)cc(-c2cc3c(cc2C(=O)N2Cc4ccccc4C[C@H]2CN(C)C)CN(C(=O)Oc2ccccc2)CC3)n1C` [Example 211, Phenyl 7-[(3S)-3-[(dimethylamino)methyl]-1,2,3,4-tetrahydroisoquinoline-2-carbonyl]-6-{4-[(4-hydroxyphenyl)(methyl)carbamoyl]-1,5-dimethyl-1H-pyrrol-2-yl}-1,2,3,4-tetrahydroisoquinoline-2-carboxylate], for which the IC50 at Bcl-2 protein turned out to be 3.4 nM; in experiment [1], 6.9 nM.

As for `Cc1c(C(=O)N(C)c2ccc(O)cc2)cc(-c2cc3c(cc2C(=O)N2Cc4ccccc4C[C@H]2CN2CCN(C)CC2)CN(C(=O)Oc2ccccc2)CC3)n1C` [Example 214, Phenyl 6-{4-[(4-hydroxyphenyl)(methyl)carbamoyl]-1,5-dimethyl-1H-pyrrol-2-yl}-7-[(3S)-3-[(4-methylpiperazin-1-yl)methyl]-1,2,3,4-tetrahydroisoquinoline-2-carbonyl]-1,2,3,4-tetrahydroisoquinoline-2-carboxylate], the IC50 on Bcl-2 protein was 2.7 nM; in experiment [1] it was 4.1 nM.
